In ChEMBL document CHEMBL3045941, “-Methyl as a bioisostere for the oxygen link between the aromatic rings of aryloxyphenoxypropionate herbicides” (Bioorg Med Chem Lett, 1997):
The source made the active and inactive calls. The calls are words filed in the database; no cut-off is given here.

What was measured:
Echinochloa crus-galli [1] = assay: Post-emergent herbicidal activity against Echinochloa crus-galli (barnyard grass) at <2 g/ha measured after 13 days under green house conditions; type: functional, organism-based
Echinochloa crus-galli [2] = assay: Post-emergent herbicidal activity against Echinochloa crus-galli (barnyard grass) at 500 g/ha measured after 13 days under green house conditions; type: functional
Setaria viridis [3] = assay: Post-emergent herbicidal activity against Setaria viridis (green foxtail) at <2 g/ha measured after 13 days under green house conditions; type: functional, organism-based
Sorghum halepense [4] = assay: Post-emergent herbicidal activity against Sorghum halepense (Johnson grass) at 500 g/ha measured after 13 days under green house conditions; type: functional
Avena fatua [5] = assay: Post-emergent herbicidal activity against Avena fatua at <2 g/ha measured after 13 days under green house conditions; type: functional, organism-based
Avena fatua [6] = assay: Post-emergent herbicidal activity against Avena fatua at 500 g/ha measured after 13 days under green house conditions; type: functional
Triticum aestivum [7] = assay: Phytotoxicity against Triticum aestivum (wheat) at two to four-leaf growth stage at <2 g/ha measured after 13 days under green house conditions; type: organism-based; settings: in vivo, 312 h
Triticum aestivum [8] = assay: Phytotoxicity against Triticum aestivum (wheat) plant at two to four-leaf growth stage at 500 g/ha measured after 13 days under green house conditions; type: organism-based; settings: in vivo, 312 h
Oryza sativa [9] = assay: Phytotoxicity against Oryza sativa (rice) plant at two to four-leaf growth stage at <2 g/ha measured after 13 days under green house conditions; type: organism-based; settings: in vivo, 312 h
Sorghum halepense [10] = assay: Post-emergent herbicidal activity against Sorghum halepense (Johnson grass) at <2 g/ha measured after 13 days under green house conditions; type: functional, organism-based
Setaria viridis [11] = assay: Post-emergent herbicidal activity against Setaria viridis (green foxtail) at 500 g/ha measured after 13 days under green house conditions; type: functional
Oryza sativa [12] = assay: Phytotoxicity against Oryza sativa (rice) plant at two to four-leaf growth stage at 500 g/ha measured after 13 days under green house conditions; type: organism-based; settings: in vivo, 312 h
Zea mays [13] = assay: Phytotoxicity against Zea mays (maize) plant at two to four-leaf growth stage at <2 g/ha measured after 13 days under green house conditions; type: organism-based; settings: in vivo, 312 h
Zea mays [14] = assay: Phytotoxicity against Zea mays (maize) plant at two to four-leaf growth stage at 500 g/ha measured after 13 days under green house conditions; type: organism-based; settings: in vivo, 312 h
Echinochloa crus-galli [15] = assay: Post-emergent herbicidal activity against Echinochloa crus-galli (barnyard grass) at 250 g/ha measured after 13 days under green house conditions; type: functional
Setaria viridis [16] = assay: Post-emergent herbicidal activity against Setaria viridis (green foxtail) at 250 g/ha measured after 13 days under green house conditions; type: functional
Avena fatua [17] = assay: Post-emergent herbicidal activity against Avena fatua at 250 g/ha measured after 13 days under green house conditions; type: functional
Triticum aestivum [18] = assay: Phytotoxicity against Triticum aestivum (wheat) at two to four-leaf growth stage at 250 g/ha measured after 13 days under green house conditions; type: organism-based; settings: in vivo, 312 h
Sorghum halepense [19] = assay: Post-emergent herbicidal activity against Sorghum halepense (Johnson grass) at 250 g/ha measured after 13 days under green house conditions; type: functional
Oryza sativa [20] = assay: Phytotoxicity against Oryza sativa (rice) plant at two to four-leaf growth stage at 250 g/ha measured after 13 days under green house conditions; type: organism-based; settings: in vivo, 312 h
Zea mays [21] = assay: Phytotoxicity against Zea mays (maize) plant at two to four-leaf growth stage at 250 g/ha measured after 13 days under green house conditions; type: organism-based; settings: in vivo, 312 h
Echinochloa crus-galli [22] = assay: Post-emergent herbicidal activity against Echinochloa crus-galli (barnyard grass) at 5 g/ha measured after 13 days under green house conditions; type: functional
Echinochloa crus-galli [23] = assay: Post-emergent herbicidal activity against Echinochloa crus-galli (barnyard grass) at 50 g/ha measured after 13 days under green house conditions; type: functional
Setaria viridis [24] = assay: Post-emergent herbicidal activity against Setaria viridis (green foxtail) at 5 g/ha measured after 13 days under green house conditions; type: functional
Setaria viridis [25] = assay: Post-emergent herbicidal activity against Setaria viridis (green foxtail) at 50 g/ha measured after 13 days under green house conditions; type: functional
Sorghum halepense [26] = assay: Post-emergent herbicidal activity against Sorghum halepense (Johnson grass) at 5 g/ha measured after 13 days under green house conditions; type: functional
Sorghum halepense [27] = assay: Post-emergent herbicidal activity against Sorghum halepense (Johnson grass) at 50 g/ha measured after 13 days under green house conditions; type: functional
Avena fatua [28] = assay: Post-emergent herbicidal activity against Avena fatua at 5 g/ha measured after 13 days under green house conditions; type: functional
Avena fatua [29] = assay: Post-emergent herbicidal activity against Avena fatua at 50 g/ha measured after 13 days under green house conditions; type: functional
Triticum aestivum [30] = assay: Phytotoxicity against Triticum aestivum (wheat) at two to four-leaf growth stage at 5 g/ha measured after 13 days under green house conditions; type: organism-based; settings: in vivo, 312 h
Triticum aestivum [31] = assay: Phytotoxicity against Triticum aestivum (wheat) at two to four-leaf growth stage at 50 g/ha measured after 13 days under green house conditions; type: organism-based; settings: in vivo, 312 h
Oryza sativa [32] = assay: Phytotoxicity against Oryza sativa (rice) plant at two to four-leaf growth stage at 5 g/ha measured after 13 days under green house conditions; type: organism-based; settings: in vivo, 312 h
Oryza sativa [33] = assay: Phytotoxicity against Oryza sativa (rice) plant at two to four-leaf growth stage at 50 g/ha measured after 13 days under green house conditions; type: organism-based; settings: in vivo, 312 h
Zea mays [34] = assay: Phytotoxicity against Zea mays (maize) plant at two to four-leaf growth stage at 5 g/ha measured after 13 days under green house conditions; type: organism-based; settings: in vivo, 312 h
Zea mays [35] = assay: Phytotoxicity against Zea mays (maize) plant at two to four-leaf growth stage at 50 g/ha measured after 13 days under green house conditions; type: organism-based; settings: in vivo, 312 h

## CCOC(=O)C(C)Oc1ccc(N(C)c2cnc3cc(Cl)ccc3n2)cc1 (racemic)
Echinochloa crus-galli [1]
  Activity: inactive
Echinochloa crus-galli [2]
  Activity: 85%
Setaria viridis [3]
  Activity: inactive
Sorghum halepense [4]
  Activity: 85%
Avena fatua [5]
  Activity: inactive
Avena fatua [6]
  Activity: 0%
Triticum aestivum [7]
  Activity: Non-toxic
Triticum aestivum [8]
  Activity: 85%
Oryza sativa [9]
  Activity: Non-toxic
Sorghum halepense [10]
  Activity: inactive
Setaria viridis [11]
  Activity: 85%
Oryza sativa [12]
  Activity: 0%
Zea mays [13]
  Activity: Non-toxic
Zea mays [14]
  Activity: 50%

## COC(=O)C(C)Oc1ccc(N(C)c2ccc3cc(Cl)ccc3n2)cc1 (racemic)
Echinochloa crus-galli [1]
  Activity: inactive
Echinochloa crus-galli [2]
  Activity: 100%
Setaria viridis [3]
  Activity: inactive
Sorghum halepense [4]
  Activity: 100%
Avena fatua [5]
  Activity: inactive
Avena fatua [6]
  Activity: 70%
Triticum aestivum [7]
  Activity: Non-toxic
Triticum aestivum [8]
  Activity: 85%
Oryza sativa [9]
  Activity: Non-toxic
Sorghum halepense [10]
  Activity: inactive
Setaria viridis [11]
  Activity: 85%
Oryza sativa [12]
  Activity: 30%
Zea mays [13]
  Activity: Non-toxic
Zea mays [14]
  Activity: 100%

## COC(=O)C(C)Oc1ccc(N(C)c2ccc(C(F)(F)F)cn2)cc1 (racemic)
Echinochloa crus-galli [1]
  Activity: inactive
Echinochloa crus-galli [2]
  Activity: 50%
Setaria viridis [3]
  Activity: inactive
Sorghum halepense [4]
  Activity: 0%
Avena fatua [5]
  Activity: inactive
Avena fatua [6]
  Activity: 0%
Triticum aestivum [7]
  Activity: Non-toxic
Triticum aestivum [8]
  Activity: 30%
Oryza sativa [9]
  Activity: Non-toxic
Sorghum halepense [10]
  Activity: inactive
Setaria viridis [11]
  Activity: 0%
Oryza sativa [12]
  Activity: 0%
Zea mays [13]
  Activity: Non-toxic
Zea mays [14]
  Activity: 30%

## CCOC(=O)C(C)Oc1ccc(Oc2ncc(Cl)cn2)cc1 (racemic)
Echinochloa crus-galli [1]
  Activity: inactive
Echinochloa crus-galli [15]
  Activity: 85%
Setaria viridis [3]
  Activity: inactive
Setaria viridis [16]
  Activity: 85%
Avena fatua [5]
  Activity: inactive
Avena fatua [17]
  Activity: 85%
Triticum aestivum [7]
  Activity: Non-toxic
Triticum aestivum [18]
  Activity: 70%
Oryza sativa [9]
  Activity: Non-toxic
Sorghum halepense [10]
  Activity: inactive
Sorghum halepense [19]
  Activity: 85%
Oryza sativa [20]
  Activity: 70%
Zea mays [13]
  Activity: Non-toxic
Zea mays [21]
  Activity: 85%

## CCOC(=O)C(C)Oc1ccc(N(C)c2cc3ccc(Cl)cc3cn2)cc1 (racemic)
Echinochloa crus-galli [1]
  Activity: inactive
Echinochloa crus-galli [2]
  Activity: 100%
Setaria viridis [3]
  Activity: inactive
Sorghum halepense [4]
  Activity: 85%
Avena fatua [5]
  Activity: inactive
Avena fatua [6]
  Activity: 70%
Triticum aestivum [7]
  Activity: Non-toxic
Triticum aestivum [8]
  Activity: 85%
Oryza sativa [9]
  Activity: Non-toxic
Sorghum halepense [10]
  Activity: inactive
Setaria viridis [11]
  Activity: 85%
Oryza sativa [12]
  Activity: 0%
Zea mays [13]
  Activity: Non-toxic
Zea mays [14]
  Activity: 100%

## COC(=O)C(C)Oc1ccc(N(C)c2nnc3cc(Cl)ccc3n2)cc1 (racemic)
Echinochloa crus-galli [1]
  Activity: inactive
Echinochloa crus-galli [22]
  Activity: 0%
Echinochloa crus-galli [23]
  Activity: 100%
Setaria viridis [3]
  Activity: inactive
Setaria viridis [24]
  Activity: 100%
Setaria viridis [25]
  Activity: 100%
Sorghum halepense [26]
  Activity: 50%
Sorghum halepense [27]
  Activity: 100%
Avena fatua [5]
  Activity: inactive
Avena fatua [28]
  Activity: 50%
Avena fatua [29]
  Activity: 85%
Triticum aestivum [7]
  Activity: Non-toxic
Triticum aestivum [30]
  Activity: 70%
Triticum aestivum [31]
  Activity: 85%
Oryza sativa [9]
  Activity: Non-toxic
Sorghum halepense [10]
  Activity: inactive
Oryza sativa [32]
  Activity: 0%
Oryza sativa [33]
  Activity: 85%
Zea mays [13]
  Activity: Non-toxic
Zea mays [34]
  Activity: 70%
Zea mays [35]
  Activity: 85%

## CCCCOC(=O)C(C)Oc1ccc(Oc2ccc(C(F)(F)F)cn2)cc1 (racemic)
Echinochloa crus-galli [1]
  Activity: inactive
Echinochloa crus-galli [23]
  Activity: 85%
Setaria viridis [3]
  Activity: inactive
Setaria viridis [25]
  Activity: 85%
Sorghum halepense [27]
  Activity: 85%
Avena fatua [5]
  Activity: inactive
Avena fatua [29]
  Activity: 85%
Triticum aestivum [7]
  Activity: Non-toxic
Triticum aestivum [31]
  Activity: 70%
Oryza sativa [9]
  Activity: Non-toxic
Sorghum halepense [10]
  Activity: inactive
Oryza sativa [33]
  Activity: 50%
Zea mays [13]
  Activity: Non-toxic
Zea mays [35]
  Activity: 85%

## COC(=O)C(C)Oc1ccc(Oc2ccc(Cl)cc2Cl)cc1 (racemic) [DICLOFOP-METHYL]
Echinochloa crus-galli [1]
  Activity: inactive
Echinochloa crus-galli [2]
  Activity: 100%
Setaria viridis [3]
  Activity: inactive
Sorghum halepense [4]
  Activity: 70%
Avena fatua [5]
  Activity: inactive
Avena fatua [6]
  Activity: 70%
Triticum aestivum [7]
  Activity: Non-toxic
Triticum aestivum [8]
  Activity: 0%
Oryza sativa [9]
  Activity: Non-toxic
Sorghum halepense [10]
  Activity: inactive
Setaria viridis [11]
  Activity: 100%
Oryza sativa [12]
  Activity: 0%
Zea mays [13]
  Activity: Non-toxic
Zea mays [14]
  Activity: 85%

## CCOC(=O)C(C)Oc1ccc(Oc2nc3ccc(Cl)cc3o2)cc1 (racemic) [FENOXAPROP-ETHYL]
Echinochloa crus-galli [1]
  Activity: inactive
Echinochloa crus-galli [23]
  Activity: 100%
Setaria viridis [3]
  Activity: inactive
Setaria viridis [25]
  Activity: 100%
Sorghum halepense [27]
  Activity: 100%
Avena fatua [5]
  Activity: inactive
Avena fatua [29]
  Activity: 85%
Triticum aestivum [7]
  Activity: Non-toxic
Triticum aestivum [31]
  Activity: 0%
Oryza sativa [9]
  Activity: Non-toxic
Sorghum halepense [10]
  Activity: inactive
Oryza sativa [33]
  Activity: 70%
Zea mays [13]
  Activity: Non-toxic
Zea mays [35]
  Activity: 85%

## CCOC(=O)C(C)Oc1ccc(Oc2cnc3cc(Cl)ccc3n2)cc1 (racemic) [QUIZALOFOP ETHYL ESTER]
Echinochloa crus-galli [1]
  Activity: inactive
Echinochloa crus-galli [22]
  Activity: 70%
Echinochloa crus-galli [23]
  Activity: 100%
Setaria viridis [3]
  Activity: inactive
Setaria viridis [24]
  Activity: 70%
Setaria viridis [25]
  Activity: 100%
Sorghum halepense [26]
  Activity: 85%
Sorghum halepense [27]
  Activity: 100%
Avena fatua [5]
  Activity: inactive
Avena fatua [28]
  Activity: 30%
Avena fatua [29]
  Activity: 85%
Triticum aestivum [7]
  Activity: Non-toxic
Triticum aestivum [30]
  Activity: 85%
Triticum aestivum [31]
  Activity: 85%
Oryza sativa [9]
  Activity: Non-toxic
Sorghum halepense [10]
  Activity: inactive
Oryza sativa [32]
  Activity: 50%
Oryza sativa [33]
  Activity: 70%
Zea mays [13]
  Activity: Non-toxic
Zea mays [34]
  Activity: 85%
Zea mays [35]
  Activity: 100%
